Key:
[1] = test system: 5/6-kidney-removed rats (male Wistar); test: Assessment of renal protective effect 2 (5/6-kidney-removed rats), Test Example 6; type: in vivo, rat; settings: 2 mg/kg/day mixed with feed, vs vehicle-administered group
Procedure: Assessment of Renal Protective Effect 2
7-Week old male Wistar rats (Japan SLC, Inc.) were treated by removing 2/3 of the left kidney under isoflurane anesthesia and then removing the whole right kidney one week later to prepare 5/6-kidney-removed rats. Compound 1 (2 mg/kg/day) mixed with feed was orally administered to the rats from the age of 9 weeks. As a normal control, male Wistar rats at the same age were set as a sham group. […] For statistical analysis, Student's test was conducted between the vehicle-administered group and the Compound 1-administered group. […] For statistical analysis, Student's test or Aspin-Welch was conducted.

[2] = test system: male SDT fatty rats; test: Assessment of renal protective effect (GFR in SDT fatty rats), Test Example 5; type: in vivo, rat; settings: 2 mg/kg oral once a day, 16 weeks; vs vehicle group of SDT fatty rats
Procedure: Assessment of Renal Protective Effect
Vehicle (0.5% methyl cellulose solution), Compound 1 (2 mg/kg), or dapagliflozin (0.3 mg/kg) was orally administered once a day to male SDT fatty rats (7-week old, CLEA Japan, Inc.); and as a normal control, vehicle was orally administered once a day to male SD rats (7-week old, CLEA Japan, Inc.). 16 Weeks after the administration, GFR (mL/min/100 g B.W.) was measured with a transdermal GFR monitor (MediBeacon). For statistical analysis, Student's test was conducted between the vehicle-administered group of SD rats and the vehicle-administered group of SDT fatty rats. Dunnett's multiple test was conducted for the Compound 1 and dapagliflozin groups to the vehicle group of SDT fatty rats. The significance level was two-sided 5%.

[3] = biological target: T1, human SGLT1 (Homo sapiens, UniProt P13866); test: Assessment of SGLT1 inhibitory activity (14C-AMG uptake in human SGLT1-stably-expressing CHO-K1 cell line); type: cell-based
T1 sequence (P13866 1-664): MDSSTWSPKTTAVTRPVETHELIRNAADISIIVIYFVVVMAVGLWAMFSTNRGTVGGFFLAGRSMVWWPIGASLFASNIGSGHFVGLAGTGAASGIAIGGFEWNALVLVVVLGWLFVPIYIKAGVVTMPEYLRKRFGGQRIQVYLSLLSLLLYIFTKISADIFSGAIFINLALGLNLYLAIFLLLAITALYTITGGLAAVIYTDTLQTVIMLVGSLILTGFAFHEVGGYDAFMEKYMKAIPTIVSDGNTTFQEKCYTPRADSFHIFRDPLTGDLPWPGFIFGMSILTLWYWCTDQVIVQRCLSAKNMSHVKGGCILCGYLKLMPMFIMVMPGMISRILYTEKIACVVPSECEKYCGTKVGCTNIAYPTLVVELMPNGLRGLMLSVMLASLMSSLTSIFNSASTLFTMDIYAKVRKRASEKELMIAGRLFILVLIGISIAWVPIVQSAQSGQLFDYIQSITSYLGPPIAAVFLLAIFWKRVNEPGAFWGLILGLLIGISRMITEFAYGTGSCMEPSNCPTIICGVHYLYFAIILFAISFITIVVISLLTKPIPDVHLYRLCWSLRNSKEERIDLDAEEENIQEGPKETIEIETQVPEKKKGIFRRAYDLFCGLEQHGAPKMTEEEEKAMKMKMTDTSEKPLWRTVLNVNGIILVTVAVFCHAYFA
Procedure: Assessment of SGLT1 Inhibitory Activity
SGLT1 inhibitory activities of test compounds (IC50 values) were calculated based on the amount of intracellular uptake of labelled […] (^14C-AMG) transported by SGLT1.
1) Formation of Human SGLT1-Expressing Plasmid
A DNA fragment containing human SGLT1 was amplified by PCR (Polymerase Chain Reaction) using pCMV6-hSGLT1 (OriGene) as a template. In the human SGLT1, NheI recognition and cleavage sequence was added to the upstream of Kozac consensus sequence derived from a vector, and a stop codon, TAG, and SalI recognition and cleavage sequence were added to the immediate downstream of the protein-translating region of human SGLT1. […]
Human SGLT1-stably-expressing cell lines were seeded at 5×10^4 cells/well on BioCoat™ Poly-D-Lysine 96 well plate with Lid (Becton, Dickinson and Company) and cultured at 37° C. under 5% CO2 overnight. […] In the assessment for the uptake ability of ^14C-AMG, the total amount of the cell lysate was transferred to OptiPlate 96 (Perkin-E1mer) with 100 μL/well of MicroScint-40 (Perkin-E1mer) dispensed and ^14C of CPM was measured with TOPCOUNT NXT (Perkin-E1mer).
Data was calculated by deducting the average value of CPM for blank well from the average value of CPM for each well treated. […]

[4] = test system: glucose-loaded SD rats; test: OGTT (Oral Glucose Tolerance Test), Test Example 2; type: in vivo, rat; settings: 1, 3, or 10 mg/kg oral, 16 hours before glucose load; compared to vehicle
Procedure: (§1) OGTT (Oral Glucose Tolerance Test)
Vehicle (0.5% methylcellulose solution) or Compound 1 (1, 3, or 10 mg/kg) suspended in a 0.5% methylcellulose solution was orally administered in 5 mL/kg to an about 4-hour-fasted male SD rat (8-week old, Nihon Charles River K.K., 6 cases for each group). […] Statistical analyses were based on Steel's multiple test. The significance level was two-sided 5%.

[5] = test system: glucose-loaded SD rats; test: OGTT (Oral Glucose Tolerance Test), Test Example 3; type: in vivo, rat; settings: 3 mg/kg oral, 16 hours before glucose load; compared to vehicle
Procedure: as §1
Vehicle (0.5% methylcellulose solution), or Compound 1, Compound A, or Compound B (3 mg/kg each) suspended in a 0.5% methylcellulose solution was orally administered in 5 mL/kg to an about 4-hour-fasted male SD rat (8-week old, Nihon Charles River K.K., 5 cases for each group).
Statistical analyses were based on Dunnett's multiple group test. The significance level was two-sided 5%.

Row | inhibition at 0.3 µM ([3]; CHO-K1, at 0.3 μM, read-out: hSGLT1 inhibition) [%] | Compound | protein quantities in the urine (mg/mgCr) ([1]; 16, 30, and 69 days) | creatinine clearance (mL/min) [1] | urea nitrogen levels (mg/dL) [1] | GFR (mL/min/100 g B.W.) [2] | SGLT1 inhibitory activity ([3]; qualitative statement) | blood glucose level after the glucose load (Δ AUC to 120 minutes, % of Vehicle) [4] | blood glucose level after the glucose load (Δ AUC to 120 minutes, % of Vehicle) [5]
1 | – | C[C@H]1C(=O)NC[C@@H]1C(=O)Nc1cc(-c2cc(F)cc(OC(C)(C)C)c2)n(C(F)(F)F)n1 [Example 1, (3R,4R)-N-(5-(3-(tert-butoxy)-5-fluorophenyl)-1-(trifluoromethyl)-1H-pyrazol-3-yl)-4-methyl-5-oxopyrrolidine-3-carboxamide] | lower than those of the vehicle-administered group | significantly higher than that of the vehicle-administered group | significantly lower than those of the vehicle-administered group | inhibited the increase of GFR | confirmed to have the SGLT1 inhibitory activity | significantly reduced the blood glucose level | significantly reduced the blood glucose level
2 | 45 | C[C@H]1C(=O)NC[C@@H]1C(=O)Nc1cc(-c2cccc(OC(F)(F)F)c2)n(-c2ccc(Cl)nn2)n1 [Example 10] | – | – | – | – | – | – | –

— patent publication US12721844B2, “Chronic kidney disease treatment or prevention method” (Japan Tobacco Inc., priority 2019, dated 2026)
